Data taken from BindingDB's records for doi:10.1016/j.bmc.2006.09.055 (University of Cape Town, 2007).

Molecular target: T1, Falcipain 2 (Plasmodium falciparum, UniProt Q9N6S8)
T1 sequence (Q9N6S8 whole entry): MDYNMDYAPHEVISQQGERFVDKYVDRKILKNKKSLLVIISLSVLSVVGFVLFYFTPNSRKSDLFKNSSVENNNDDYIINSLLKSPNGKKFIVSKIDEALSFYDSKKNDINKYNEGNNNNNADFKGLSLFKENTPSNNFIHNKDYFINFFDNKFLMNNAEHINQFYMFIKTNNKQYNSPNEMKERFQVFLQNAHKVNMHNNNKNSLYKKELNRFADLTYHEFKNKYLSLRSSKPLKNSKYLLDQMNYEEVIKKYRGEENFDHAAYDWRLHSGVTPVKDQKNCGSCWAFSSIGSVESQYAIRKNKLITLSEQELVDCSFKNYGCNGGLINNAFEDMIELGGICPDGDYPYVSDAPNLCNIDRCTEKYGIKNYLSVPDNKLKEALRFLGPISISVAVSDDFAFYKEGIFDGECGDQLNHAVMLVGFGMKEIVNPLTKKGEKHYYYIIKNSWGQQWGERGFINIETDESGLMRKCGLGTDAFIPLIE
Test: Falcipain-2 Inhibition Assay
Settings: pH 5.5; 22 °C
Protocol: IC50 values against the recombinant falcipain-2 were determined by incubating protein with different concentrations of inhibitors in reaction buffer after addition of the substrate. Fluorescence was continuously monitored for 30 min at room temperature in a Labsystems Fluoroscan Ascent spectrofluorometer. IC50 values were determined from plots of activity over inhibitor concentration with GraphPad Prism software.

IC50: > 20 µM
SMILES: NC(=S)NN=Cc1ccc(O)cc1O [2,4-dihydroxybenzaldehyde thiosemicarbazone]
